Assay results as given in patent US20110136792A1, “NOVEL CARBOXYLIC ACID ANALOGS AS GLYCOGEN SYNTHASE ACTIVATORS” (priority 2009, published 2011).

Test system: glycogen synthase
Test: Glycogen Synthase (GS) Assay
Format: biochemical
Conditions: coupled pyruvate kinase/lactate dehydrogenase assay, absorbance at 340 nm; for EC50: compound concentration needed to give 50% maximum activation; for GS SC200: compound concentration needed to stimulate 200% of the enzyme activity
Experimental: The following tests were carried out in order to determine the activity of the compounds of formula (I).
Twelve μL per well of substrate solution containing glycogen (4.32 mg/ml), 2.67 mM UDP-glucose, 21.6 mM phospho(enol)pyruvate and 2.7 mM NADH in 30 mM glycylglycine, pH 7.3 buffer was added into a polystyrene 384-well assay plate (BD Biosciences).
Compound solutions (8 μL/well) at various concentrations (0-300 μM) were added to the assay plate (columns 5-24). Compound solution contains 30 mM glycylglycine, pH 7.3, 40 mM KCl, 20 mM MgCl2, 9.2% DMSO, with (columns 15-24) or without (columns 5-14) 20 mM glucose 6-phosphate.
Enzyme solution (12 μL/well) containing glycogen synthase (16.88 μg/ml), pyruvate kinase (0.27 mg/ml), lactate dehydrogenase (0.27 mg/ml) in 50 mM Tris-HCl, pH 8.0, 27 mM DTT and bovine serum albumin (BSA, 0.2 mg/ml) was added to the assay plate (columns 3-24). As a blank control, enzyme solution without glycogen synthase was added into the top half wells of columns 1-2. To the bottom half wells of columns 1-2 were added a known activator, glucose 6-phosphate (at final concentration 5 mM) in addition to the enzyme solution. The reaction mixture was incubated at room temperature. The assay plate was then read for absorbance at 340 nm on an Envision reader every 3 minutes up to a total of 15 minutes.
The enzyme activity (with or without compound) was calculated by the reaction rate and represented by the optical density change (δOD) per minute. Percent stimulation of glycogen synthase activity by a compound at various concentrations was calculated by the following formula: […]
Where Rs is the reaction rate of the enzyme in the presence of compound and Rt is the reaction rate of the enzyme in the absence of compound.
SC200 is defined as the compound concentration that is needed to stimulate 200% of the enzyme activity. EC50 is defined as the compound concentration that is needed to give 50% maximum activation.
Compounds from Examples 1 through Example 64 were assayed according to assay procedures described above and the result is listed in Table 1 below: […]

SMILES	EC50 [nM]	GS SC200 [µM]
CCOC(=O)N(CC(=O)O)Cc1cccc(COc2ccc(-c3cc(F)c(F)cc3OC)cc2)c1 [Example 20, {[3-(4′,5′-Difluoro-2′-methoxy-biphenyl-4-yloxymethyl)-benzyl]-ethoxycarbonyl-amino}-acetic acid]	5240	0.50
COc1cc(F)c(F)cc1-c1ccc(OCc2cccc(CN(CC(=O)O)C(C)=O)c2)cc1 [Example 21, {Acetyl-[3-(4′,5′-difluoro-2′-methoxy-biphenyl-4-yloxymethyl)-benzyl]-amino}-acetic acid]	430	0.16
COc1cc(F)c(F)cc1-c1ccc(OCc2cccc(CN(CC(=O)O)C(=O)C3CC3)c2)cc1 [Example 22, {Cyclopropanecarbonyl-[3-(4′,5′-difluoro-2′-methoxy-biphenyl-4-yloxymethyl)-benzyl]-amino}-acetic acid]	260	0.03
CCC(=O)N(CC(=O)O)Cc1cccc(COc2ccc(-c3cc(F)c(F)cc3OC)cc2)c1 [Example 23, {[3-(4′,5′-Difluoro-2′-methoxy-biphenyl-4-yloxymethyl)-benzyl]-propionyl-amino}-acetic acid]	370	0.10
COc1cc(F)c(F)cc1-c1ccc(OCc2cccc(CN(CC(=O)O)C(=O)CC3CC3)c2)cc1 [Example 24, {(2-Cyclopropyl-acetyl)-[3-(4′,5′-difluoro-2′-methoxy-biphenyl-4-yloxymethyl)-benzyl]-amino}-acetic acid]	730	0.12
COc1cc(F)c(F)cc1-c1ccc(OCc2cccc(CN(CC(=O)O)C(=O)[C@@H]3CCCO3)c2)cc1 [Example 25, [[3-(4′,5′-Difluoro-2′-methoxy-biphenyl-4-yloxymethyl)-benzyl]-((S)-tetrahydro-furan-2-carbonyl)-amino]-acetic acid]	410	0.07
COCCC(=O)N(CC(=O)O)Cc1cccc(COc2ccc(-c3cc(F)c(F)cc3OC)cc2)c1 [Example 26, [[3-(4′,5′-Difluoro-2′-methoxy-biphenyl-4-yloxymethyl)-benzyl]-(3-methoxy-propionyl)-amino]-acetic acid]	450	0.05
COc1cc(F)c(F)cc1-c1ccc(OCc2cccc(CN(CC(=O)O)C(=O)c3cscn3)c2)cc1 [Example 27, [[3-(4′,5′-Difluoro-2′-methoxy-biphenyl-4-yloxymethyl)-benzyl]-(thiazole-4-carbonyl)-amino]-acetic acid]	520	0.08
COCC(=O)N(CC(=O)O)Cc1cccc(COc2ccc(-c3cc(F)c(F)cc3OC)cc2)c1 [Example 28, [[3-(4′,5′-Difluoro-2′-methoxy-biphenyl-4-yloxymethyl)-benzyl]-(2-methoxy-acetyl)-amino]-acetic acid]	410	0.06
COc1cc(F)c(F)cc1-c1ccc(OCc2cccc(CN(CC(=O)O)C(=O)c3cn(C)cn3)c2)cc1 [Example 29, [[3-(4′,5′-Difluoro-2′-methoxy-biphenyl-4-yloxymethyl)-benzyl]-(1-methyl-1H-imidazole-4-carbonyl)-amino]-acetic acid]	340	0.01
COc1cc(F)c(F)cc1-c1ccc(OCc2cccc(CN(CC(=O)O)C(=O)c3cccnc3)c2)cc1 [Example 30, [[3-(4′,5′-difluoro-2′-methoxy-biphenyl-4-yloxymethyl)-benzyl]-(pyridine-3-carbonyl)-amino]-acetic acid]	470	0.04
COCC(C)C(=O)N(CC(=O)O)Cc1cccc(COc2ccc(-c3cc(F)c(F)cc3OC)cc2)c1 (stereo not shown) [Example 31]	480	0.07
COc1cc(F)c(F)cc1-c1ccc(OCc2cccc(CN(CC(=O)O)C(=O)C3CCN(C)CC3)c2)cc1 [Example 32, [[3-(4′,5′-Difluoro-2′-methoxy-biphenyl-4-yloxymethyl)-benzyl]-(1-methyl-piperidine-4-carbonyl)-amino]-acetic acid]	610	0.07
COc1cc(F)c(F)cc1-c1ccc(OCc2cccc(CN(CC(=O)O)C(=O)[C@H]3CCCO3)c2)cc1 [Example 33, [[3-(4′,5′-Difluoro-2′-methoxy-biphenyl-4-yloxymethyl)-benzyl]-((R)-tetrahydro-furan-2-carbonyl)-amino]-acetic acid]	350	0.02
COc1cc(F)c(F)cc1-c1ccc(OCc2cccc(CN(CC(=O)O)C(=O)C3CCOC3)c2)cc1 (stereo not shown) [Example 34, [[3-(4′,5′-Difluoro-2′-methoxy-biphenyl-4-yloxymethyl)-benzyl]-(tetrahydro-furan-3-carbonyl)-amino]-acetic acid]	280	0.04
COc1cc(F)c(F)cc1-c1ccc(OCc2cccc(CN(CC(=O)O)Cc3ccccc3)c2)cc1 [Example 35, {Benzyl-[3-(4′,5′-difluoro-2′-methoxy-biphenyl-4-yloxymethyl)-benzyl]-amino}-acetic acid]	1460	0.46
CCN(CC(=O)O)Cc1cccc(COc2ccc(-c3cc(F)c(F)cc3OC)cc2)c1 [Example 36, {[3-(4′,5′-Difluoro-2′-methoxy-biphenyl-4-yloxymethyl)-benzyl]-ethyl-amino}-acetic acid]	1930	0.50
COc1cc(F)c(F)cc1-c1ccc(OCc2cccc(CNCC(=O)O)c2)cc1.Cl [Example 37, [3-(4′,5′-Difluoro-2′-methoxy-biphenyl-4-yloxymethyl)-benzylamino]-acetic acid]	4900	0.38
O=C(O)C1CCS(=O)(=O)N1Cc1ccc(F)c(COc2ccc(-c3ccc(F)cc3F)cc2)c1 (stereo not shown) [Example 41, 2-[3-(2′,4′-Difluoro-biphenyl-4-yloxymethyl)-4-fluoro-benzyl]-1,1-dioxo-1lambda*6*-isothiazolidine-3-carboxylic acid]	150	0.07
O=C(O)C1CCS(=O)(=O)N1Cc1cc(COc2ccc(-c3ccc(F)cc3F)cc2)ccc1F (stereo not shown) [Example 42, 2-[5-(2′,4′-Difluoro-biphenyl-4-yloxymethyl)-2-fluoro-benzyl]-1,1-dioxo-1lambda*6*-isothiazolidine-3-carboxylic acid]	180	0.06
COc1cc(F)c(F)cc1-c1ccc(OCc2cccc(CN3[C@@H](C(=O)O)CCS3(=O)=O)c2)cc1 [Example 44, (R)-2-[3-(4′,5′-Difluoro-2′-methoxy-biphenyl-4-yloxymethyl)-benzyl]-1,1-dioxo-1lambda*6*-isothiazolidine-3-carboxylic acid]	380	0.09
COc1cc(F)c(F)cc1-c1ccc(OCc2cccc(CN3[C@H](C(=O)O)CCS3(=O)=O)c2)cc1 [Example 45, (S)-2-[3-(4′,5′-Difluoro-2′-methoxy-biphenyl-4-yloxymethyl)-benzyl]-1,1-dioxo-1lambda*6*-isothiazolidine-3-carboxylic acid]	120	0.02
O=C(O)[C@@H]1CCS(=O)(=O)N1Cc1cccc(COc2ccc(-c3cc(F)c(F)cc3F)cc2)c1 [Example 46, (S)-1,1-Dioxo-2-[3-(2′,4′,5′-trifluoro-biphenyl-4-yloxymethyl)-benzyl]-1lambda*6*-isothiazolidine-3-carboxylic acid]	90	0.01
O=C(O)[C@H]1CCS(=O)(=O)N1Cc1cccc(COc2ccc(-c3cc(F)c(F)cc3F)cc2)c1 [Example 47, (R)-1,1-Dioxo-2-[3-(2′,4′,5′-trifluoro-biphenyl-4-yloxymethyl)-benzyl]-1lambda*6*-isothiazolidine-3-carboxylic acid]	1820	0.62
Cc1cc(F)c(F)cc1-c1ccc(OCc2cccc(CN3[C@H](C(=O)O)CCS3(=O)=O)c2)cc1 [Example 48, (S)-2-[3-(4′,5′-Difluoro-2′-methyl-biphenyl-4-yloxymethyl)-benzyl]-1,1-dioxo-1lambda*6*-isothiazolidine-3-carboxylic acid]	110	0.01
Cc1cc(F)c(F)cc1-c1ccc(OCc2cccc(CN3[C@@H](C(=O)O)CCS3(=O)=O)c2)cc1 [Example 49, (R)-2-[3-(4′,5′-Difluoro-2′-methyl-biphenyl-4-yloxymethyl)-benzyl]-1,1-dioxo-1lambda*6*-isothiazolidine-3-carboxylic acid]	890	0.35
